Source: patent publication US5919761A, “Peptides for heparin and low molecular weight heparin anticoagulation reversal” (The Board of Regents of the University of Michigan, priority 1995, dated 1999)

Assays:
[1] = Hemodynamic studies and total toxicity score after LMWH reversal at different rates, canine study; settings: dogs, Logiparin
Description: The anticoagulation-reversing agents were administered rapidly over 10 seconds to maximize hemodynamic effects or more slowly over a 3 minute interval. Changes in LMWH anticoagulation occurring from metabolism alone were determined in a separate group of dogs not given any reversal agent.
Hemodynamic studies were conducted by measuring mean arterial pressure (MAP) in mm Mercury, maximum percent changes in cardiac output (CO) and systemic oxygen consumption (VO2), and heart rate (HR) in beats per minute. Measurements and calculations were made at baseline, before LMWH administration, 3 minutes before reversal, every 30 seconds for 5 minutes after reversal, and at 10, 20, and 30 minutes after reversal.
(§1) TTS were developed that reflected maximum declines in each of four parameters (MAP, CO, VO2 and HR) over the first 5 minutes after reversal in the same manner as described hereinabove.

[2] = Hemodynamic studies and total toxicity score after standard heparin reversal at different rates, dogs
Description: Hemodynamic studies were conducted by measuring mean arterial pressure (MAP) in mm Mercury, maximum percent changes in cardiac output (CO) and systemic oxygen consumption (VO2), and heart rate (HR) in beats per minute. Measurements and calculations were made at baseline, before LMWH administration, 3 minutes before reversal, every 30 seconds for 5 minutes after reversal.
as §1

[3] = Platelet and white blood cell count after LMWH reversal, canine study; assay type: in vivo; settings: dogs, Logiparin
Description: In addition to the measurements reported on Table 6, studies were conducted to measure the activated partial thromboplastin time (aPTT), platelet count, and white blood cell count. […] However, the [+18B] variant produced greater aPTT reversal than protamine at the 3, 10 and 30 minute measurements (64%, 95%, and 93%, respectively, as compared to 50%, 83%, and 78%, respectively, for protamine).

LMWH (Enoxaparin) = experiment: Factor Xa and IIa reversal after LMWH Enoxaparin, canine study; assay type: in vivo; settings: dogs, 3 min
Description: Similar studies were conducted to assess the ability of the protamine-like peptide analogs described in this section to reverse the anticoagulation effects of the LMWH, Enoxaparin. FIG. 5a through FIG. 5d are graphical representations of LMWH anticoagulation activities achieved by n-protamine (Protamine [+21]), and compounds [+18BE], [+18KDEL], and [+18RGD] plotted as a percent of reversal against time in minutes. […] Referring to FIG. 5c, compound [+18RGD] dramatically outperforms n-protamine in reversing the heparin antifactor Xa activity of Enoxaparin.

LMWH (LHN-1, Logiparin) [4] = experiment: Percent reversal of LMWH anticoagulation, agents administered at different rates, canine study; assay type: in vivo, dogs
Description: Anticoagulation reversal was assessed by a number of standard coagulation tests performed upon samples of venous blood in the manner described hereinabove. Measurements were made 3 minutes prior to heparin reversal (baseline) and 3 minutes, 10 minutes, and 30 minutes post-administration of the heparin reversal agent.

LMWH (LHN-1, Logiparin) [5] = experiment: Percent reversal of low molecular weight heparin anticoagulation, in vivo canine study, coagulation tests; design: species or system dogs; settings: for aPTT reversal: Logiparin
Description: Anticoagulation reversal was assessed by a number of standard coagulation tests performed upon samples of venous blood: activated clotting time (ACT), heparin concentration by assay for FXa inhibitory activity (FXa), thrombin clotting time (TCT), and heparin concentration by assay for FIIa inhibitory activity (FIIa). Measurements were made 3 minutes prior to heparin reversal (baseline) and 3 minutes, 10 minutes, and 30 minutes post-administration of the heparin reversal agent. […] The coagulation data were corrected for naturally occurring metabolism.

[6] = Maximum hemodynamic changes and total toxicity score after Enoxaparin reversal, canine study; settings: dogs, agent over 10 seconds
Description: (§2) Seven female dogs (mean weight 15-20 kg) received intravenous standard, unfractionated heparin (150 IU/kg IV) or LMWH (Enoxaparin, Rhone-Poulac, France; 100 IU/kg factor Xa activity) followed by reversal with commercial salmine protamine (n-protamine purchased from Eli Lilly, Indianapolis, Ind., 1.5 mg/kg (100 IU/mg) IV) or an anticoagulation-reversing agent which is a protamine-like peptide variant identified hereinbelow. In these studies, the anticoagulation-reversing agents were administered over a 10 second interval to maximize the hemodynamic effects.

[7] = Percent change in platelet count after Enoxaparin reversal, canine study; assay type: in vivo; settings: dogs, agent over 10 seconds
Description: as §2

[8] = test system: standard, unfractionated heparin; experiment: Percent reversal of standard heparin anticoagulation by variant peptides and protamine, in vivo canine study, coagulation tests; design: species or system dogs; settings: for Percent reversal of heparin anticoagulation, ACT: dogs, heparin 150 IU/kg IV, agent 1.5 mg/kg IV over 10 seconds
Description: Data are expressed as a mean ±1 SD. Statistical analysis using linear regression for determination of correlation coefficients, and analysis of variance (ANOVA) or unpaired two-way Student's t-test; p<0.05 was accepted as statistically significant.
Anticoagulation reversal was assessed by a number of standard coagulation tests performed upon samples of venous blood: activated clotting time (ACT), prothrombin time (PT), activated partial thromboplastin time (aPTT), thrombin clotting time (TCT), heparin concentration by assay for FXa inhibitory activity (FXa), white cell count (WBC), and platelet counts (PLT). Measurements were made 3 minutes prior to heparin reversal (baseline) and 3 minutes and 30 minutes post-administration of the heparin reversal agent. The "Heparin" row sets forth the observed reversal as a consequence of expected heparin metabolism or degradation alone.

[9] = Percent change in platelet count after standard heparin reversal, cell adhesion ligand analogs, canine study; assay type: in vivo; settings: dogs, agent over 10 seconds
Description: In addition to hemodynamic changes, Table 15 lists the percent change in platelet count following administration of n-protamine and the selected variants, as well as the factor Xa and factor IIa reversal, as a percent change at 3 minutes post administration of the compound.

[10] = clinical use; cited from earlier work
[11] = test system: standard, unfractionated heparin; experiment: Factor Xa and IIa reversal after standard heparin, cell adhesion ligand analogs, canine study; assay type: in vivo; settings: dogs, 3 min post administration
Description: Anticoagulation reversal was assessed by a number of standard coagulation tests performed upon samples of venous blood in the manner described hereinabove. Measurements were made 3 minutes prior to heparin reversal (baseline) and 3 minutes, 10 minutes, and 30 minutes post-administration of the heparin reversal agent. […] Referring to FIGS. 4a through 4d, compound [+18RGD] performs as well, or better, than n-protamine in the standard coagulation tests performed in these studies.

[12] = administered over 10 sec, 3 min
[13] = administered over 10 sec, 10 min
[14] = administered over 10 sec, 30 min
[15] = administered over 3 min, 10 min
[16] = administered over 3 min, 30 min

PR4 S3 RPVR5 PRVSR6 G2 R4 [Protamine [+21], reference compound]
Total Toxicity Score ([1]; administered over 10 sec): -6.4 ± 3.8
ΔCO ([1]; administered over 10 sec): -32%
ΔHr ([1]; administered over 10 sec): -18 beats per minute
ΔMAP ([1]; administered over 10 sec): -32 mm Mercury
ΔVO2 ([1]; administered over 10 sec): -26%
Total Toxicity Score ([1]; administered over 3 min): -7.2 ± 3.5
ΔCO ([1]; administered over 3 min): -28%
ΔHr ([1]; administered over 3 min): -36 beats per minute
ΔMAP ([1]; administered over 3 min): -18 mm Mercury
ΔVO2 ([1]; administered over 3 min): -23%
Total Toxicity Score ([2]; administered over 10 sec): -7.1 ± 4.63
Total Toxicity Score ([2]; administered over 3 min): -5.66 ± 4.04
mean decline in platelet count [3]: -43%
IIa Reversal (LMWH (Enoxaparin)): 98%
Xa Reversal (LMWH (Enoxaparin)): 30%
Percent reversal of LMWH anticoagulation, FNa (LMWH (LHN-1, Logiparin) [4]; [12]): 96%
Percent reversal of LMWH anticoagulation, FXa (LMWH (LHN-1, Logiparin) [4]; [12]): 63%
Percent reversal of LMWH anticoagulation, TCT (LMWH (LHN-1, Logiparin) [4]; [12]): 99%
Percent reversal of LMWH anticoagulation, ACT (LMWH (LHN-1, Logiparin) [4]; [13]): 83%
Percent reversal of LMWH anticoagulation, FXa (LMWH (LHN-1, Logiparin) [4]; [13]): 45%
Percent reversal of LMWH anticoagulation, TCT (LMWH (LHN-1, Logiparin) [4]; [13]): 98%
Percent reversal of LMWH anticoagulation, ACT (LMWH (LHN-1, Logiparin) [4]; [14]): 78%
Percent reversal of LMWH anticoagulation, FNa (LMWH (LHN-1, Logiparin) [4]; [14]): 86%
Percent reversal of LMWH anticoagulation, TCT (LMWH (LHN-1, Logiparin) [4]; [14]): 96%
Percent reversal of LMWH anticoagulation, FNa (LMWH (LHN-1, Logiparin) [4]; administered over 3 min, 3 min): 99%
Percent reversal of LMWH anticoagulation, FXa (LMWH (LHN-1, Logiparin) [4]; administered over 3 min, 3 min): 68%
Percent reversal of LMWH anticoagulation, TCT (LMWH (LHN-1, Logiparin) [4]; administered over 3 min, 3 min): 100%
Percent reversal of LMWH anticoagulation, ACT (LMWH (LHN-1, Logiparin) [4]; [15]): 87%
Percent reversal of LMWH anticoagulation, FNa (LMWH (LHN-1, Logiparin) [4]; [15]): 98%
Percent reversal of LMWH anticoagulation, FXa (LMWH (LHN-1, Logiparin) [4]; [15]): 53%
Percent reversal of LMWH anticoagulation, TCT (LMWH (LHN-1, Logiparin) [4]; [15]): 99%
Percent reversal of LMWH anticoagulation, ACT (LMWH (LHN-1, Logiparin) [4]; [16]): 80%
Percent reversal of LMWH anticoagulation, FNa (LMWH (LHN-1, Logiparin) [4]; [16]): 92%
Percent reversal of LMWH anticoagulation, FXa (LMWH (LHN-1, Logiparin) [4]; [16]): 45%
Percent reversal of LMWH anticoagulation, TCT (LMWH (LHN-1, Logiparin) [4]; [16]): 98%
Percent reversal of LMWH anticoagulation, ACT (LMWH (LHN-1, Logiparin) [4]; dogs, Logiparin, agent administered over 10 sec, 3 min post-administration): 96%
Percent reversal of LMWH anticoagulation, ACT (LMWH (LHN-1, Logiparin) [4]; dogs, Logiparin, agent administered over 3 min, 3 min post-administration): 99%
aPTT reversal (LMWH (LHN-1, Logiparin) [5]; dogs, 3 minute measurement): 50%
aPTT reversal (LMWH (LHN-1, Logiparin) [5]; dogs, 10 minute measurement): 83%
aPTT reversal (LMWH (LHN-1, Logiparin) [5]; dogs, 30 minute measurement): 78%
Percent reversal of LMWH anticoagulation, ACT (LMWH (LHN-1, Logiparin) [5]; dogs, Logiparin 150 IU/kg, agent 1.5 mg/kg IV after 30 min, 3 min post-administration, corrected for metabolism): 99%
Percent reversal of LMWH anticoagulation, FNa (LMWH (LHN-1, Logiparin) [5]; same study, 3 min): 99%
Percent reversal of LMWH anticoagulation, FXa (LMWH (LHN-1, Logiparin) [5]; same study, 3 min): 63%
Percent reversal of LMWH anticoagulation, TCT (LMWH (LHN-1, Logiparin) [5]; same study, 3 min): 100%
Percent reversal of LMWH anticoagulation, ACT (LMWH (LHN-1, Logiparin) [5]; same study, 10 min): 88%
Percent reversal of LMWH anticoagulation, FXa (LMWH (LHN-1, Logiparin) [5]; same study, 10 min): 45%
Percent reversal of LMWH anticoagulation, TCT (LMWH (LHN-1, Logiparin) [5]; same study, 10 min): 98%
Percent reversal of LMWH anticoagulation, ACT (LMWH (LHN-1, Logiparin) [5]; same study, 30 min): 82%
Percent reversal of LMWH anticoagulation, FNa (LMWH (LHN-1, Logiparin) [5]; same study, 30 min): 86%
Percent reversal of LMWH anticoagulation, FXa (LMWH (LHN-1, Logiparin) [5]; same study, 30 min): 44%
Percent reversal of LMWH anticoagulation, TCT (LMWH (LHN-1, Logiparin) [5]; same study, 30 min): 96%
Maximum hemodynamic change, Mean BP ([6]; Enoxaparin 100 IU/kg, 5 minutes): -7 mm Mercury
Maximum hemodynamic change, CO ([6]; Enoxaparin, 5 minutes): -23%
Maximum hemodynamic change, HR ([6]; Enoxaparin, 5 minutes): -17 beats/min
Maximum hemodynamic change, VO2 ([6]; Enoxaparin, 5 minutes): -23%
Total Toxicity Score (TTS) ([6]; Enoxaparin, listed as Prot[+21]): -5.77
Total Toxicity Score (TTS) ([6]; Enoxaparin, listed as [+21] n-protamine): -5.77 ± 3.46
Platelet (percent change in platelet count) [7]: -40%
Percent reversal of heparin anticoagulation, ACT ([8]; 3 min post-administration): 102%
Percent reversal of heparin anticoagulation, ACT ([8]; 30 min): 90%
Percent reversal of heparin anticoagulation, APTT ([8]; same study, 3 min): 100%
Percent reversal of heparin anticoagulation, FNa ([8]; same study, 3 min): 102%
Percent reversal of heparin anticoagulation, FXa ([8]; same study, 3 min): 101%
Percent reversal of heparin anticoagulation, PT ([8]; same study, 3 min): 84%
Percent reversal of heparin anticoagulation, TCT ([8]; same study, 3 min): 101%
Percent reversal of heparin anticoagulation, APTT ([8]; same study, 30 min): 127%
Percent reversal of heparin anticoagulation, FXa ([8]; same study, 30 min): 96%
Percent reversal of heparin anticoagulation, PT ([8]; same study, 30 min): 88%
Percent reversal of heparin anticoagulation, TCT ([8]; same study, 30 min): 100%
Platelet (percent change in platelet count) [9]: -54%
cases with significant systemic arterial hypertension and pulmonary artery hypertension [10]: about 4%
IIa Reversal [11]: 98%
Xa Reversal [11]: 99%
